Experimental findings from PMC10115881, “Disrupting the α-synuclein-ESCRT interaction with a peptide inhibitor mitigates neurodegeneration in preclinical models of Parkinson’s disease” (Nature Communications, 2023) are described below.

The subject of one experiment is VPS4B-CHMP2B interaction. Put plainly: Co-immunoprecipitation: disruption of VPS4B-CHMP interaction. The experiment is classed as cell-based. The protocol: HEK293T cells were co-transfected with Flag-tagged target protein, HA-tagged source protein, and GFP-tagged peptide or GFP. Cells were lysed 48 h after transfections with radioimmune precipitation assay buffer (50 mM Tris-HCl pH 7.4, 1% Nonidet P-40, 150 mM NaCl, 1 mM EDTA, 10 mM Na3VO4, 10 mM sodium pyrophosphate, 25 mM NaF, 1× protease inhibitor mixture (Sigma)) for 30 min at 4 °C and co-immunoprecipitated with Flag beads (Clontech). The resulting immunocomplexes were analyzed by immunoblot using the appropriate antibodies. Protein samples were separated using 4–20% Mini-PROTEAN Tris-glycine gels (Bio-Rad) transferred to PVDF membranes and blocked in 5% milk containing PBS-Tween-20 (0.1%) for 1 h. PVDF membranes were then incubated with specified primary antibodies followed by incubation with horseradish peroxidase-conjugated secondary antibodies (anti-mouse HRP-linked, Cell Signaling, catalog #7076, 1:5000; anti-rabbit HRP-linked, Cell Signaling, catalog #7074, 1:5000) and detected using enhanced chemiluminescence (GE Healthcare). HA antibodies were obtained from Santa Cruz (catalog #7392, 1:2000), GFP antibodies were purchased from Abcam (catalog #ab290, 1:2000), and Flag antibodies were purchased from Sigma (catalog #A8592, 1:1000).

Experiment [1] has as its system LC3-HiBiT reporter in HEK293 cells. The experiment can be described thus: Autophagy flux assay (LC3-HiBiT reporter), HEK293 cells. It counts as cell-based, human. An excerpt:
Autophagic flux was quantitatively measured with the Autophagy LC3-HiBiT Reporter Assay System which was purchased from Promega (GA1040) and used according to the manufacturer’s instructions. When autophagy is induced, the cytosolic LC3-I fusion protein is recruited to phagophores where it becomes conjugated to phosphatidylethanolamine to form LC3-II. Upon phagophore membrane elongation and closure to form the mature autophagosome, a significant fraction of tethered LC3 protein becomes captured within the lumen together with various cargo. Subsequently, autophagosomes fuse with lysosomes to form autolysosomes, leading to the ultimate degradation of both cargo and the captured LC3 reporter protein. Thus, changes in the total level of the LC3 reporter protein can be used to monitor changes in autophagic flux. HEK293 cells (ATCC, CRL-1573) stably expressing the LC3-HiBiT reporter were trypsinized from subconfluent culture and seeded in a 10 cm plate at a density of 3.0 × 10^6 per plate. Cells were incubated overnight at 37 °C in 5% CO2. Cells were transfected with FLAG-peptide plasmids in combination with pcDNA or A53T a-syn plasmids. After 24 h, cells were trypsinized and seeded in triplicate in a white flat-bottomed 96-well plate at a density of 20,000 cells per well. Cell medium was replaced the next day with fresh medium containing DMSO, Rapamycin, or Bafilomycin A1 and incubated for 24 h at 37 °C with 5% CO2. 80 µL of Working prewarmed Nano-Glo® HiBiT lytic buffer containing HiBiT substrate and LgBit protein (N3030) were added to each well containing 20 µL of cell medium and left to incubate on a rocker for 10 min. Samples were read using a luminometer with a 480 nm filter with measured RLU being directly proportional to HiBiT-conjugated LC3.

In experiment [2] the test system is endolysosomal flux in HEK293 cells. The experiment can be described thus: Endolysosomal flux assay, flow cytometry, HEK293 cells. The experiment is classed as cell-based, human. The conditions noted are these: A53T a-syn. How it is done:
Flux via the endolysosomal pathway was measured with the Lysosome Intracellular Activity Assay Kit which was purchased from Abcam (ab234622) and used according to the manufacturer’s instructions. The kit provides a proprietary lysosome-specific self-quenched substrate which has low background fluorescence, high signal-to-background ratio, and is pH insensitive. In the assay, the substrate is taken up by cells and acts as endocytic cargo which is degraded within an endolysosomal vesicle. Following degradation, the fluorescence signal recovered from the substrate is proportional to the intracellular lysosomal activity. The activity can be measured by fluorescence microscopy or FACS. The assay was performed with HEK293T cells or SNCA triplication fibroblasts (obtained from NINDS Human Genetics Resource Center DNA and Cell Line Repository; NINDS Repository sample number ND27760). Cells were maintained in DMEM supplemented with 10% FBS and 1% pen/strep/glutamine. Cell medium was replaced with fresh medium containing DMSO, Leupeptin, or Bafilomycin A1 and incubated for 1 h at 37 °C with 5% CO2. Self-quenched substrate was added into each condition and incubated for 1 h (HEK293T cells) or overnight (SNCA triplication fibroblasts) at 37 °C with 5% CO2. […] For HEK293T cells, cells were resuspended in PBS containing DMSO or Leupeptin and analyzed by FACS. […]
In general terms: Flow cytometry measures light scatter and fluorescence of single cells or particles in a stream.

DEEIERQLKALG [PDpep1.3]: in the experiment with VPS4B-CHMP2B interaction, the “Effect on VPS4B-CHMP2B interaction” value is reported as “inhibits the CHMP2B-VPS4 interaction”. Moreover, the “Effect on autophagic flux” value in experiment [1] is “neither A53T a-syn nor PDpep1.3 altered autophagic flux”. Besides, in experiment [2], the “Effect on endolysosomal flux” value is reported as “returned the fluorescent signal to baseline”.
